How the values were obtained:
Assay type in all cases: in vivo
Kochia (Kochia scoparia) [1] = assay: Test A preemergence; settings: for Plant response rating, Kochia: 125 g ai/ha; for Kochia plant response rating (0 to 100 scale, 0 is no effect, 100 is complete control): 500 g ai/ha, visual injury approx. 10 d
Description: (§1) Seeds of plant species selected from barnyardgrass (Echinochloa crus-galli), Kochia (Kochia scoparia), ragweed (common ragweed, Ambrosia elatior), ryegrass, Italian (Italian ryegrass, Lolium multiflorum), crabgrass, large (Digitaria sanguinalis), giant foxtail (Setaria faberii), green foxtail (Setaria viridis), morningglory (Ipomoea spp.), pigweed (Amaranthus retroflexus), velvetleaf (Abutilon theophrasti), wheat (Triticum aestivum), and corn (Zea mays) were planted into a blend of loam soil and sand and treated preemergence with a directed soil spray using test chemicals formulated in anon-phytotoxic solvent mixture which included a surfactant.
(§2) At the same time, plants selected from these crop and weed species and also blackgrass (Alopecurus myosuroides), and Galium (catchweed bedstraw, Galium aparine) were planted in pots containing the same blend of loam soil and sand and treated with postemergence applications of test chemicals formulated in the same manner. Plants ranged in height from 2 to 10 cm and were in the one- to two-leaf stage for the postemergence treatment. Treated plants and untreated controls were maintained in a greenhouse for approximately 10 d, after which time all treated plants were compared to untreated controls and visually evaluated for injury. Plant response ratings, summarized in Table A, are based on a 0 to 100 scale where 0 is no effect and 100 is complete control. A dash (-) response means no test result.

[2] = test system: barnyardgrass (Echinochloa crus-galli); assay: Test A preemergence; settings: for Plant response rating, Barnyardgrass: 125 g ai/ha; for Barnyardgrass plant response rating (0 to 100 scale, 0 is no effect, 100 is complete control): 500 g ai/ha, visual injury approx. 10 d
Description: as §1, §2

[3] = test system: giant foxtail (Setaria faberii); assay: Test A preemergence; settings: for Plant response rating, Foxtail, Giant: 125 g ai/ha; for Foxtail, Giant plant response rating (0 to 100 scale, 0 is no effect, 100 is complete control): 500 g ai/ha, visual injury approx. 10 d
Description: as §1, §2

[4] = test system: pigweed (Amaranthus retroflexus); assay: Test A preemergence; settings: for Plant response rating, Pigweed: 125 g ai/ha; for Pigweed plant response rating (0 to 100 scale, 0 is no effect, 100 is complete control): 500 g ai/ha, visual injury approx. 10 d
Description: as §1, §2

[5] = test system: ragweed (common ragweed, Ambrosia elatior); assay: Test A preemergence; settings: for Plant response rating, Ragweed: 125 g ai/ha; for Ragweed plant response rating (0 to 100 scale, 0 is no effect, 100 is complete control): 500 g ai/ha, visual injury approx. 10 d
Description: as §1, §2

[6] = test system: ryegrass, Italian (Italian ryegrass, Lolium multiflorum); assay: Test A preemergence; settings: for Plant response rating, Ryegrass, Italian: 125 g ai/ha; for Ryegrass, Italian plant response rating (0 to 100 scale, 0 is no effect, 100 is complete control): 500 g ai/ha, visual injury approx. 10 d
Description: as §1, §2

[7] = test system: Galium (catchweed bedstraw, Galium aparine); assay: Test A postemergence; settings: for Galium plant response rating: 125 g ai/ha, visual injury rating on 0 to 100 scale (0 no effect, 100 complete control), approx. 10 d; for Plant response rating, Galium: 500 g ai/ha
Description: as §1, §2

Kochia (Kochia scoparia) [8] = assay: Test A postemergence; settings: for Kochia plant response rating: 125 g ai/ha, visual injury rating on 0 to 100 scale (0 no effect, 100 complete control), approx. 10 d; for Plant response rating, Kochia: 500 g ai/ha
Description: as §1, §2

[9] = test system: barnyardgrass (Echinochloa crus-galli); assay: Test A postemergence; settings: for Barnyardgrass plant response rating: 125 g ai/ha, visual injury rating on 0 to 100 scale (0 no effect, 100 complete control), approx. 10 d; for Plant response rating, Barnyardgrass: 500 g ai/ha
Description: as §1, §2

[10] = test system: blackgrass (Alopecurus myosuroides); assay: Test A postemergence; settings: for Blackgrass plant response rating: 125 g ai/ha, visual injury rating on 0 to 100 scale (0 no effect, 100 complete control), approx. 10 d; for Plant response rating, Blackgrass: 500 g ai/ha
Description: as §1, §2

corn (Zea mays) = assay: Test A postemergence; settings: for Corn plant response rating: 125 g ai/ha, visual injury rating on 0 to 100 scale (0 no effect, 100 complete control), approx. 10 d; for Plant response rating, Corn: 500 g ai/ha
Description: as §1, §2

[11] = test system: giant foxtail (Setaria faberii); assay: Test A postemergence; settings: for Foxtail, Giant plant response rating: 125 g ai/ha, visual injury rating on 0 to 100 scale (0 no effect, 100 complete control), approx. 10 d; for Plant response rating, Foxtail, Giant: 500 g ai/ha
Description: as §1, §2

[12] = test system: pigweed (Amaranthus retroflexus); assay: Test A postemergence; settings: for Pigweed plant response rating: 125 g ai/ha, visual injury rating on 0 to 100 scale (0 no effect, 100 complete control), approx. 10 d; for Plant response rating, Pigweed: 500 g ai/ha
Description: as §1, §2

[13] = test system: ragweed (common ragweed, Ambrosia elatior); assay: Test A postemergence; settings: for Ragweed plant response rating: 125 g ai/ha, visual injury rating on 0 to 100 scale (0 no effect, 100 complete control), approx. 10 d; for Plant response rating, Ragweed: 500 g ai/ha
Description: as §1, §2

[14] = test system: ryegrass, Italian (Italian ryegrass, Lolium multiflorum); assay: Test A postemergence; settings: for Ryegrass, Italian plant response rating: 125 g ai/ha, visual injury rating on 0 to 100 scale (0 no effect, 100 complete control), approx. 10 d; for Plant response rating, Ryegrass, Italian: 500 g ai/ha
Description: as §1, §2

[15] = test system: wheat (Triticum aestivum); assay: Test A postemergence; settings: for Wheat plant response rating: 125 g ai/ha, visual injury rating on 0 to 100 scale (0 no effect, 100 complete control), approx. 10 d; for Plant response rating, Wheat: 500 g ai/ha
Description: as §1, §2

[16] = test system: barnyardgrass (Echinochloa crus-galli); assay: Test B flooded paddy test; settings: Flood, 250 g ai/ha; 0 to 100 scale where 0 is no effect and 100 is complete control; 13 to 15 d
How it was run: (§3)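 Compound goes directly into floodwater once pots are flooded 3 cm above soil, targeting plants at two leaves; the water depth is then held for the test duration. Plants sit 13–15 d in a greenhouse and are rated visually, 100 denoting complete control.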

[17] = test system: ducksalad (Heteranthera limosa); assay: Test B flooded paddy test; settings: Flood, 250 g ai/ha; 0 to 100 scale where 0 is no effect and 100 is complete control; 13 to 15 d
How it was run: as §3

rice (Oryra sativa) = assay: Test B flooded paddy test; settings: Flood, 250 g ai/ha; 0 to 100 scale where 0 is no effect and 100 is complete control; 13 to 15 d
How it was run: as §3

[18] = test system: sedge, umbrella (small-flower umbrella sedge, Cyperus difformis); assay: Test B flooded paddy test; settings: Flood, 250 g ai/ha; 0 to 100 scale where 0 is no effect and 100 is complete control; 13 to 15 d
How it was run: as §3

[19] = preemergence, 0 to 100 scale (0 no effect, 100 complete control)
[20] = postemergence, 0 to 100 scale, 0 no effect, 100 complete control
[21] = Preemergence, visual injury after approximately 10 d, 0 to 100 scale where 0 is no effect and 100 is complete control
[22] = Postemergence, 0 to 100 scale where 0 is no effect and 100 is complete control

Row | SMILES | Kochia plant response rating (0 to 100 scale, 0 is no effect, 100 is complete control) (Kochia (Kochia scoparia) [1]; Preemergence) | Barnyardgrass plant response rating (0 to 100 scale, 0 is no effect, 100 is complete control) ([2]; Preemergence) | Foxtail, Giant plant response rating (0 to 100 scale, 0 is no effect, 100 is complete control) ([3]; Preemergence) | Pigweed plant response rating (0 to 100 scale, 0 is no effect, 100 is complete control) ([4]; Preemergence) | Ragweed plant response rating (0 to 100 scale, 0 is no effect, 100 is complete control) ([5]; Preemergence) | Ryegrass, Italian plant response rating (0 to 100 scale, 0 is no effect, 100 is complete control) ([6]; Preemergence) | Galium plant response rating ([7]; postemergence) | Kochia plant response rating (Kochia (Kochia scoparia) [8]; postemergence) | Barnyardgrass plant response rating ([9]; postemergence) | Blackgrass plant response rating ([10]; postemergence) | Corn plant response rating (corn (Zea mays); postemergence) | Foxtail, Giant plant response rating ([11]; postemergence) | Pigweed plant response rating ([12]; postemergence) | Ragweed plant response rating ([13]; postemergence) | Ryegrass, Italian plant response rating ([14]; postemergence) | Wheat plant response rating ([15]; postemergence) | Plant response rating, Barnyardgrass [16] | Plant response rating, Ducksalad [17] | Plant response rating, Rice (rice (Oryra sativa)) | Plant response rating, Sedge, Umbrella [18] | further results
1 | O=C1NCC(c2cccc(C#Cc3ccccc3)c2)C1C(=O)Nc1cccc(F)c1F (stereo not drawn) [Compound 451] | 0 | 0 | 0 | 0 | 0 | 0 | 0 | 0 | 0 | 0 | 0 | 0 | 0 | 0 | 0 | 0 | 0 | 0 | 0 | 0 | Plant response rating, Kochia (Kochia (Kochia scoparia) [1]; [19]): 0; Plant response rating, Barnyardgrass [2, 19]: 0; Plant response rating, Foxtail, Giant [3, 19]: 0; Plant response rating, Pigweed [4, 19]: 0; Plant response rating, Ragweed [5, 19]: 0; Plant response rating, Ryegrass, Italian [6, 19]: 0; Plant response rating, Galium [7, 20]: 0; Plant response rating, Kochia (Kochia (Kochia scoparia) [8]; [20]): 0; Plant response rating, Barnyardgrass [9, 20]: 0; Plant response rating, Blackgrass [10, 20]: 0; Plant response rating, Corn (corn (Zea mays); [20]): 0; Plant response rating, Foxtail, Giant [11, 20]: 0; Plant response rating, Pigweed [12, 20]: 0; Plant response rating, Ragweed [13, 20]: 0; Plant response rating, Ryegrass, Italian [14, 20]: 0; Plant response rating, Wheat [15, 20]: 0
2 | O=C(Nc1cccc(F)c1F)C1C(=O)N(CC=CBr)CC1c1cccc(C(F)(F)F)c1 (stereo not drawn) [Compound 486] | 0 | 70 | 90 | 20 | 0 | 20 | 0 | 0 | 0 | 0 | 0 | 0 | 0 | 0 | 0 | 0 | 0 | 0 | 0 | 0 | Plant response rating, Kochia (Kochia (Kochia scoparia) [1]; [21]): 0; Plant response rating, Barnyardgrass [2, 21]: 30; Plant response rating, Foxtail, Giant [3, 21]: 60; Plant response rating, Pigweed [4, 21]: 0; Plant response rating, Ragweed [5, 21]: 0; Plant response rating, Ryegrass, Italian [6, 21]: 0; Plant response rating, Galium [7, 22]: 20; Plant response rating, Kochia (Kochia (Kochia scoparia) [8]; [22]): 0; Plant response rating, Barnyardgrass [9, 22]: 40; Plant response rating, Blackgrass [10, 22]: 0; Plant response rating, Corn (corn (Zea mays); [22]): 0; Plant response rating, Foxtail, Giant [11, 22]: 50; Plant response rating, Pigweed [12, 22]: 40; Plant response rating, Ragweed [13, 22]: 0; Plant response rating, Ryegrass, Italian [14, 22]: 0; Plant response rating, Wheat [15, 22]: 0

From patent US12077503B2, “Substituted cyclic amides and their use as herbicides” (FMC CORPORATION, priority 2015, dated 2024)
